Assay results from the NIST ThermoML archive (doi:10.1016/j.fluid.2014.11.020).
± gives the expanded uncertainty stated by the source.

Assay: activity coefficient (dimensionless); of the first substance listed, at infinite dilution; xn = mol fraction of the nth substance listed
Conditions: Liquid, Chromatography, x1 = 0

| Compound | activity coefficient (323.15 K) | activity coefficient (333.15 K) | activity coefficient (343.15 K) |
| --- | --- | --- | --- |
| Cc1ccccc1 [toluene] + CCCOC[n+]1ccn(Cc2ccccc2)c1.O=S(=O)([N-]S(=O)(=O)C(F)(F)F)C(F)(F)F | 1.09 ± 0.07 | 0.97 ± 0.06 | 0.96 ± 0.06 |
| Cc1ccc(C)cc1 [1,4-dimethylbenzene] + CCCOC[n+]1ccn(C)c1.F[B-](F)(F)F | 10.7 ± 0.73 | 10.3 ± 0.7 | 10.2 ± 0.7 |
| c1ccccc1 [benzene] + CCCOC[n+]1ccn(Cc2ccccc2)c1.F[B-](F)(F)F | 2.01 ± 0.14 | 2 ± 0.14 | 1.99 ± 0.14 |
| CC1CCCCC1 [methylcyclohexane] + CCCOC[n+]1ccn(C)c1.N#C[N-]C#N | 44.3 ± 3 | 39.6 ± 2.7 | 35.6 ± 2.4 |
| CCc1ccccc1 [ethylbenzene] + CCCCCCCCn1cc[n+](COCCC)c1C.O=S(=O)([N-]S(=O)(=O)C(F)(F)F)C(F)(F)F | 1.01 ± 0.06 | 1.03 ± 0.06 | 1.04 ± 0.07 |
| CCC(C)=O [butanone] + CCCCCCCCn1cc[n+](COCCCOC[n+]2ccn(CCCCCCCC)c2C)c1C.O=S(=O)([N-]S(=O)(=O)C(F)(F)F)C(F)(F)F.O=S(=O)([N-]S(=O)(=O)C(F)(F)F)C(F)(F)F | 0.21 ± 0.03 | 0.19 ± 0.03 | 0.18 ± 0.03 |
| Cc1cccc(C)c1 [1,3-dimethylbenzene] + CCCCCCCCn1cc[n+](COCCCOC[n+]2ccn(CCCCCCCC)c2C)c1C.O=S(=O)([N-]S(=O)(=O)C(F)(F)F)C(F)(F)F.O=S(=O)([N-]S(=O)(=O)C(F)(F)F)C(F)(F)F | 0.75 ± 0.05 | 0.72 ± 0.05 | 0.74 ± 0.05 |
| CCCCCCCCC [nonane] + CCCOC[n+]1ccn(Cc2ccccc2)c1.O=S(=O)([N-]S(=O)(=O)C(F)(F)F)C(F)(F)F | 23.3 ± 1.6 | 19.1 ± 1.3 | 17.5 ± 1.2 |
| CC1CCCCC1 [methylcyclohexane] + CCCCCCCCn1cc[n+](COCCCOC[n+]2ccn(CCCCCCCC)c2C)c1C.N#C[N-]C#N.N#C[N-]C#N | 5.75 ± 0.39 | 5.07 ± 0.35 | 4.82 ± 0.33 |
| C=CCCCC [hex-1-ene] + CCCOC[n+]1ccn(Cc2ccccc2)c1.N#C[N-]C#N | 15.9 ± 1.1 | 14.8 ± 1 |  |
| Cc1cccc(C)c1 [1,3-dimethylbenzene] + CN(C)c1cc[n+](COCCCOC[n+]2ccc(N(C)C)cc2)cc1.O=S(=O)([N-]S(=O)(=O)C(F)(F)F)C(F)(F)F.O=S(=O)([N-]S(=O)(=O)C(F)(F)F)C(F)(F)F | 1.36 ± 0.09 | 1.38 ± 0.09 | 1.4 ± 0.09 |
| C=CCCCC [hex-1-ene] + CCCCCCCCn1cc[n+](COCCCOC[n+]2ccn(CCCCCCCC)c2C)c1C.O=S(=O)([N-]S(=O)(=O)C(F)(F)F)C(F)(F)F.O=S(=O)([N-]S(=O)(=O)C(F)(F)F)C(F)(F)F | 2.33 ± 0.16 | 2.51 ± 0.17 | 2.35 ± 0.16 |
| CC(C)CC(C)(C)C [2,2,4-trimethylpentane] + CCCCCCCCn1cc[n+](COCCCOC[n+]2ccn(CCCCCCCC)c2C)c1C.N#C[N-]C#N.N#C[N-]C#N | 11.4 ± 0.78 | 10.5 ± 0.72 | 9.74 ± 0.66 |
| CC(C)CC(C)(C)C [2,2,4-trimethylpentane] + CN(C)c1cc[n+](COCCCOC[n+]2ccc(N(C)C)cc2)cc1.O=S(=O)([N-]S(=O)(=O)C(F)(F)F)C(F)(F)F.O=S(=O)([N-]S(=O)(=O)C(F)(F)F)C(F)(F)F | 31.7 ± 2.2 | 25.2 ± 1.7 | 25.4 ± 1.7 |
| CCC(=O)CC [pentan-3-one] + CCCCCCCCn1cc[n+](COCCCOC[n+]2ccn(CCCCCCCC)c2C)c1C.N#C[N-]C#N.N#C[N-]C#N | 0.75 ± 0.05 | 0.76 ± 0.05 | 0.78 ± 0.05 |
| CCC(=O)CC [pentan-3-one] + CCCCCCCCn1cc[n+](COCCC)c1C.N#C[N-]C#N | 0.88 ± 0.06 | 0.89 ± 0.06 | 0.91 ± 0.06 |
| c1ccsc1 [thiophene] + CCCOC[n+]1ccn(C)c1.O=S(=O)([N-]S(=O)(=O)C(F)(F)F)C(F)(F)F | 1.06 ± 0.07 | 1.05 ± 0.07 | 1.04 ± 0.07 |
| C1CCCCC1 [cyclohexane] + CCCCCCCCn1cc[n+](COCCC)c1C.N#C[N-]C#N | 4.06 ± 0.28 | 3.85 ± 0.26 | 3.82 ± 0.26 |
| CCCCCCCCCCC [undecane] + CCCCCCCCn1cc[n+](COCCC)c1C.O=S(=O)([N-]S(=O)(=O)C(F)(F)F)C(F)(F)F | 11.2 ± 0.76 | 10.5 ± 0.72 | 9.8 ± 0.67 |
| CCCCCCCCCC [decane] + CCCOC[n+]1ccn(Cc2ccccc2)c1.N#C[N-]C#N | 144 ± 9.9 | 123 ± 8.4 | 105 ± 7.2 |
| Cc1ccccc1C [1,2-dimethylbenzene] + Cn1cc[n+](COCCCOC[n+]2ccn(C)c2)c1.O=S(=O)([N-]S(=O)(=O)C(F)(F)F)C(F)(F)F.O=S(=O)([N-]S(=O)(=O)C(F)(F)F)C(F)(F)F | 2.08 ± 0.14 | 2.1 ± 0.14 | 2.04 ± 0.14 |
| c1ccccc1 [benzene] + CCCOC[n+]1ccn(C)c1.O=S(=O)([N-]S(=O)(=O)C(F)(F)F)C(F)(F)F | 1.2 ± 0.08 | 1.17 ± 0.07 | 1.17 ± 0.07 |
